Values quoted from earlier work in patent US7335651B2, “Compositions incorporating(-)-hydroxycitric acid and related methods for promoting fat oxidation” (Interhealth Nutraceuticals Incorporated, priority 2001, dated 2008).
Like-named read-outs stand apart in the source and are kept apart here.

What was measured:
[1] = tested on: young obese women; settings: eight weeks
[2] = tested on: DNA
[3] = acute toxicity tests
[4] = biological target: T1, ATP-citrate lyase (Homo sapiens, UniProt P53396)
T1 sequence (P53396 1-1101): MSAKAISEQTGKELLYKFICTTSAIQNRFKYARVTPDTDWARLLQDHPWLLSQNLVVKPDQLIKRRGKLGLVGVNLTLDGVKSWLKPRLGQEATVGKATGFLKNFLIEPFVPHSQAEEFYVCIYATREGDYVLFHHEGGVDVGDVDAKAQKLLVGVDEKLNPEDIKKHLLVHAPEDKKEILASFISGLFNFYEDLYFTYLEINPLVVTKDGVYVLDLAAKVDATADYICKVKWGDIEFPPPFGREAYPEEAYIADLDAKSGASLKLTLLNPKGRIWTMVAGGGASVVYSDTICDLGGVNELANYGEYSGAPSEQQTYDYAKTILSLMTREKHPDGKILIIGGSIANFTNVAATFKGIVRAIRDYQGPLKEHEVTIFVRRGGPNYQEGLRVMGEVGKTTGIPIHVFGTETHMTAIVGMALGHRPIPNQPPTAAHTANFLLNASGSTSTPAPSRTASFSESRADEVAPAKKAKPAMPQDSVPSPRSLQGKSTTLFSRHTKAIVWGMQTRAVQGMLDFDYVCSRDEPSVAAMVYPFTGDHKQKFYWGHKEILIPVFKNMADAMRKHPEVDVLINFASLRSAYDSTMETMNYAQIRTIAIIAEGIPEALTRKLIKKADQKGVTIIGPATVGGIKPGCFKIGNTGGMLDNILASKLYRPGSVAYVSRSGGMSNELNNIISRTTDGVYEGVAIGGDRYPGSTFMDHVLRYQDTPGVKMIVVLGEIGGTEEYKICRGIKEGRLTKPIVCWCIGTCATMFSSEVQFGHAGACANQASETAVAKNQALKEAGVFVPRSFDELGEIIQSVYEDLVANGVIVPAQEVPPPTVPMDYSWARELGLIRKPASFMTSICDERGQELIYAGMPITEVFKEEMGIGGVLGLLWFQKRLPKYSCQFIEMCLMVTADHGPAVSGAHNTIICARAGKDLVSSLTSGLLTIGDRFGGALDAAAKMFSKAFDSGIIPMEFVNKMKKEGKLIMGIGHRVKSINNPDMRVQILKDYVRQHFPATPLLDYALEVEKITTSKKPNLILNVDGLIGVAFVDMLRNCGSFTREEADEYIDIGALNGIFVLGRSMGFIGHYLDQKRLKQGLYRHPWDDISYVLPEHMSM

[5] = tested on: growing rats; settings: thirty days
[6] = tested on: liver lipogenesis; settings: rats; acute oral dose 2.63 mmoles/kg (roughly 594 mg/kg) before a standardized synthetic meal; up to 8 hours after the meal

Molecule	Body weight change with exercise ([1]; in combination with exercise, O-NBC at 400 micrograms chromium per day)	Body weight change without exercise ([1]; no exercise)	DNA damage and mutagenicity [2]	Acute toxicity compared with citric acid [3]	Mode of inhibition of ATP-citrate lyase [4]	Decrease in body weight gain ([5]; 0.33 mmoles/kg twice daily)	Decrease in body weight gain ([5]; 2.63 mmoles/kg once daily)	Decrease in body weight gain ([5]; single daily administration)	Decrease in liver lipogenesis [6]
chromium picolinate	no change in weight	significant weight gain	damage DNA and be mutagenic	–	–	–	–	–	–
O=C(O)CC(O)(C(=O)O)C(O)C(=O)O (single isomer, unassigned; (-)) [HCA, (−)-hydroxycitric acid]	–	–	–	even safer than citric acid	competitive inhibitor	significant	significant	no significant reductions	roughly 70%
